Columns and labels:
[1] = system: C57.BL/6 mice, carrageenan-induced footpad edema; test: Carrageenan-induced footpad edema model; assay type: in vivo, mouse; conditions: 3 mg/kg, p.o.
Procedure: Carrageenan-Induced Footpad Edema is an acute rodent model of innate immune function. Intradermal (ID) injection of an inflammatory agent causes a rapid influx of neutrophils and fluid edema, which peaks at approximately 4 hours, followed by an influx of macrophages and monocytes, which peaks at approximately 48 hours. C57.BL/6 mice (8-10-week-old, Jackson Laboratories, Bar Harbor, Me.) were injected ID in the rear footpad with 30 μL of either PBS (left) or λ-carrageenen (Sigma Aldrich, St. Louis, Mo.) in PBS (right) at a concentration of 5.0 mg/mL (150 μg/mouse). […] Significant difference for paw thickness was determined by comparing mean paw swelling for each treatment group to vehicle in a Student's two-tailed t-test.
The endpoint measured was the difference in paw swelling (edema) between right and left paws 4 hours after treatment.

human TNFα [2] = target: T1, human TNFα (Homo sapiens, UniProt P01375); test: BIAcore assay, TNFα binding kinetics and affinity
T1 sequence (P01375 77-233 limits assumed): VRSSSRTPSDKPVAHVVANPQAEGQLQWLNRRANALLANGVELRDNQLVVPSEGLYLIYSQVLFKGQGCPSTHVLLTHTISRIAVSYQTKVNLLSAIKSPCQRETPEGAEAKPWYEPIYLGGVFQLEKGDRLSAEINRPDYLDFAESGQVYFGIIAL
Procedure: The BIACORE assay (BIAcore, Inc, Piscataway, N.J.) determines the affinity of antibodies or DVD-Ig with kinetic measurements of on-rate and off-rate constants. Binding of antibodies or DVD-Ig to a target antigen (for example, a purified recombinant target antigen) is determined by surface plasmon resonance-based measurements with a BIAcore® 3000 instrument (BIAcore® AB, Uppsala, Sweden) using running HBS-EP (10 mM HEPES [pH 7.4], 150 mM NaCl, 3 mM EDTA, and 0.005% surfactant P20) at 25° C. All chemicals are obtained from BIAcore® AB (Uppsala, Sweden) or otherwise from a different source as described in the text. […] The association and dissociation rate constants, kon (M^−1 s^−1) and koff (s^−1) are determined under a continuous flow rate of 25 μl/min. […] The equilibrium dissociation constant (M) of the reaction between antibodies or DVD-Igs and the target antigen is then calculated from the kinetic rate constants by the following formula: KD=koff/kon. Binding is recorded as a function of time and kinetic rate constants are calculated. In this assay, on-rates as fast as 10^6M^−1 s^−1 and off-rates as slow as 10^−6 s^−1 can be measured. […]

[3] = system: human TNFα transgenic B6.Cg(SJL)-Tg(TNF) N21+ mice; test: Human TNFα transgenic induced arthritis model; assay type: in vivo, mouse; conditions: 30 mg/kg
Procedure: Human TNFα transgenic B6.Cg(SJL)-Tg(TNF) N21+ mice (40 male and 40 females) (Taconic, Hudson, N.Y.) at 4 weeks age were divided into 10 groups of 8 mice (4 male and 4 females/group). Each week, starting from week 5 until week 12 of age the morphology of the rear ankle joints of the mice were evaluated and scored for signs and symptoms of arthritis. Arthritic scores were assigned as follows. • 0=no arthritis (normal appearance and flexion) • 1=mild arthritis (joint distortion) • 2=moderate arthritis (swelling, joint deformation); and • 3=severe arthritis (ankylosis detected on flexion and severely impaired movement)
Animals were randomized to achieve approximately similar mean arthritic score (MAS) for all groups at week 9 at first signs of symptoms. Animals were then treated i.p. twice a week starting from week 10 of age until week 12 of age. Mice in group 1 served as untreated control were administered PBS.

Dynamic light scattering = assay type: physicochemical; conditions: 2 mg/mL in PBS
Procedure: Samples were centrifuged at 10,000 RPM for 10 minutes before measured on DynaPro-801 Dynamic light scattering system.

human TNFα [4] = target: T1, human TNFα; test: L929 assay (TNFα induced death of L929 cells); assay type: cell-based, mouse; conditions: read-out: TNFα Cellular Potency IC50

Row | Kd (human TNFα [2]) [nM] | Compound | % Inhibition [1] [%] | Δ Paw Swelling ([1]; 4 hours post carrageenan) [mm] | maximal efficacy (inhibition of AUC of the mean arthritis score) [3] [%] | hydrodynamic radius (Dynamic light scattering) [nm] | IC50 (human TNFα [4]) [nM]
1 |  | COc1ccc2c(c1)c(CC(=O)O)c(C)n2C(=O)c1ccc(Cl)cc1 [Indomethacin, reference compound] | 57 ± 3.5 | 0.486 ± 0.03 |  |  | 
2 | 0.027 | D2E7: human anti-TNFα monoclonal antibody, parent of the DVD-Igs [reference compound] |  |  | 59 | 5.46 | 0.041

— patent US8822645B2, “Prostaglandin E2 dual variable domain immunoglobulins and uses thereof” (AbbVie Inc., priority 2008, dated 2014)
